The record followed here is patent US7091220B2, “Substituted indole Mannich bases” (Gruenenthal GmbH, priority 1999, dated 2006).

The first test deals with α2-subtype of the human α-adrenergic receptor. As to the kind of experiment: SPA test, affinity for the α2-subtype of the human α-adrenergic receptor.
Details: not given
It counts as binding. The method, then:
Wide-ranging testing of the indole Mannich bases according to the invention for their activity was carried out by the conventional high throughput screening methods, such as are described in John P. Devlin, High Throughput Screening, 1997, Marcel Dekker Inc. They are introduced here as a reference and are therefore part of the disclosure.
The action of the indole Mannich bases according to the invention is determined in particular by the affinity for the N-methyl-D-aspartate (NMDA) receptor family, for (α-adrenergic receptors and opioid receptors.
The compounds of the general formula 1 according to the invention investigated are suitable as ligands for the α2-subtype of the human α-adrenergic receptor, which is of importance for pain sensation.
The affinity of the compounds according to the invention for this α2-subtype of the α-adrenergic receptor has been determined with the aid of the SPA test such as is described in John P. Devlin, High Throughput Screening, Marcel Dekker Inc. 1997, pages 307 to 316. This literature is introduced herewith as a reference and is therefore part of the disclosure. The affinities of the compounds according to the invention were in each case determined at a concentration of 10 μM.
`CN(C)C(c1cc(Br)ccc1F)c1c[nH]c2cccc([N+](=O)[O-])c12` (stereo not drawn) [Example 51, [(5-Bromo-2-fluoro-phenyl)-(4-nitro-1H-indol-3-yl)-methyl]-dimethyl-amine]: the “% Inhibition of α2 (humans), 10 μM” value worked out at 43%.

Take `CN(C)C(c1cc(Br)ccc1F)c1cn(C)c2ccccc12` (stereo not drawn) [Example 52, [(5-Bromo-2-fluoro-phenyl)-(1-methyl-1H-indol-3-yl)-methyl]-dimethyl-amine]: the “% Inhibition of α2 (humans), 10 μM” value is given as 37%.

Consider `CCn1c(-c2ccccc2)c(C(c2c(F)cccc2Cl)N(C)C)c2ccccc21` (stereo not drawn) [Example 54, [(2-Chloro-6-fluoro-phenyl)-(1-ethyl-2-phenyl-1H-indol-3-yl)-methyl]-dimethylamine], for which the “% Inhibition of α2 (humans), 10 μM” value worked out at 55%.

Regarding `CN(C)C(c1c(F)cccc1Cl)c1c[nH]c2cccc([N+](=O)[O-])c12` (stereo not drawn) [Example 55, [(2-Chloro-6-fluoro-phenyl)-(4-nitro-1H-indol-3-yl)-methyl]-dimethyl-amine], the “% Inhibition of α2 (humans), 10 μM” value was found to be 49%.

In the case of `CN(C)C(c1ccccc1Br)c1c[nH]c2cccc([N+](=O)[O-])c12` (stereo not drawn) [Example 57, [(2-Bromo-phenyl)-(4-nitro-1H-indol-3-yl)-methyl]-dimethyl-amine], the “% Inhibition of α2 (humans), 10 μM” value came to 64%.

For `CN(C)C(c1ccccc1Br)c1cn(C)c2ccccc12` (stereo not drawn) [Example 58, [(2-Bromo-phenyl)-(1-methyl-1H-indol-3-yl)-methyl]-dimethyl-amine], the “% Inhibition of α2 (humans), 10 μM” value came out at 82%.

Regarding `CCc1cccc2c(C(c3cccc(Br)c3)N(C)C)c[nH]c12` (stereo not drawn) [Example 59, [(3-Bromo-phenyl)-(7-ethyl-1H-indol-3-yl)-methyl]-dimethyl-amine], the “% Inhibition of α2 (humans), 10 μM” value is 37%.

Turning to `CN(C)C(c1cccc(Br)c1)c1cn(C)c2ccccc12` (stereo not drawn) [Example 60, [(3-Bromo-phenyl)-(1-methyl-1H-indol-3-yl)-methyl]-dimethyl-amine], the “% Inhibition of α2 (humans), 10 μM” value is 66%.

On to `Cc1[nH]c2ccccc2c1C(c1ccc(C(C)(C)C)cc1)N(C)C` (stereo not drawn) [Example 61, [(4-tert-Butyl-phenyl)-(2-methyl-1H-indol-3-yl)-methyl]-dimethyl-amine], for which the “% Inhibition of α2 (humans), 10 μM” value was 63%.

`CCn1c(-c2ccccc2)c(C(c2ccc(C(C)(C)C)cc2)N(C)C)c2ccccc21` (stereo not drawn) [Example 62, [(4-tert-Butyl-phenyl)-(1-ethyl-2-phenyl-1H-indol-3-yl)-methyl]-dimethyl-amine]: the “% Inhibition of α2 (humans), 10 μM” value is given as 51%.

As to `CN(C)C(c1ccc(C(C)(C)C)cc1)c1cn(C)c2ccccc12` (stereo not drawn) [Example 63, [(4-tert-Butyl-phenyl)-(1-methyl-1H-indol-3-yl)-methyl]-dimethyl-amine], the “% Inhibition of α2 (humans), 10 μM” value is recorded as 60%.

Turning to `CN(C)C(c1ccc(F)cc1Cl)c1c[nH]c2cccc([N+](=O)[O-])c12` (stereo not drawn) [Example 64, [(2-Chloro-4-fluoro-phenyl)-(4-nitro-1H-indol-3-yl)-methyl]-dimethyl-amine], the “% Inhibition of α2 (humans), 10 μM” value is reported as 48%.

With `Cc1cccc2[nH]cc(C(c3ccc(F)cc3Cl)N(C)C)c12` (stereo not drawn) [Example 65, [(2-Chloro-4-fluoro-phenyl)-(4-methyl-1H-indol-3-yl)-methyl]-dimethyl-amine], the “% Inhibition of α2 (humans), 10 μM” value worked out at 42%.

For the compound `CN(C)C(c1c(F)cccc1Cl)c1c(-c2ccc(Cl)cc2)[nH]c2ccccc12` (stereo not drawn) [Example 67, {(2-Chloro-6-fluoro-phenyl)-[2-(4-chloro-phenyl)-1H-indol-3-yl]-methyl}-dimethyl-amine], the “% Inhibition of α2 (humans), 10 μM” value was found to be 36%.

Take `CN(C)C(c1cccc(Cl)c1)c1cn(C)c2ccccc12` (stereo not drawn) [Example 69, [(3-Chloro-phenyl)-(1-methyl-1H-indol-3-yl)-methyl]-dimethyl-amine]: the “% Inhibition of α2 (humans), 10 μM” value was determined as 75%.

`CN(C)C(c1cccc(Cl)c1Cl)c1cn(C)c2ccccc12` (stereo not drawn) [Example 70, [(2,3-Dichloro-phenyl)-(1-methyl-1H-indol-3-yl)-methyl]-dimethyl-amine]: the “% Inhibition of α2 (humans), 10 μM” value was found to be 63%.

On to `CN(C)C(c1ccc(Cl)cc1Cl)c1cn(C)c2ccccc12` (stereo not drawn) [Example 71, [(2,4-Dichloro-phenyl)-(1-methyl-1H-indol-3-yl)-methyl]-dimethyl-amine], for which the “% Inhibition of α2 (humans), 10 μM” value turned out to be 50%.

Still in this test, the particulars now being: 10 µM.
As for `CN(C)C(c1c(F)cccc1Cl)c1c(-c2ccccc2)[nH]c2ccccc12` (stereo not drawn) [Example 53, [(2-Chloro-6-fluoro-phenyl)-(2-phenyl-1H-indol-3-yl)-methyl]-dimethylamine], the “% Inhibition of α2 (humans), 10 μM” value was 38%.

Take `CN(C)C(c1c(F)cccc1Cl)c1cn(C)c2ccccc12` (stereo not drawn) [Example 56, [(2-Chloro-6-fluoro-phenyl)-(1-methyl-1H-indol-3-yl)-methyl]-dimethyl-amine]: the “% Inhibition of α2 (humans), 10 μM” value worked out at 39%.

Regarding `CN(C)C(c1c(F)cccc1Cl)c1c(-c2ccccc2)[nH]c2ccccc12` (stereo not drawn) [Example 66, [(2-Chloro-6-fluoro-phenyl)-(2-phenyl-1H-indol-3-yl)-methyl]-dimethyl-amine], the “% Inhibition of α2 (humans), 10 μM” value is 44%.

In the case of `CN(C)C(c1c(F)cccc1Cl)c1cn(C)c2ccccc12` (stereo not drawn) [Example 68, [(2-Chloro-6-fluoro-phenyl)-(1-methyl-1H-indol-3-yl)-methyl]-dimethyl-amine], the “% Inhibition of α2 (humans), 10 μM” value amounted to 88%.

The next test deals with phenylquinone-induced writhing in mice. Put plainly: Analgesia test: phenylquinone-induced writhing in mice. Type of test: in vivo. The note with it: male NMRI mice; standard dose 10 mg/kg intravenous, 10 minutes before phenylquinone intraperitoneally; counted 5–20 minutes. The protocol:
The in-depth investigation of the compounds according to the invention for their analgesic activity was carried out in the phenylquinone-induced writhing in mice (modified by I. C. Hendershot, J. Forsaith, J. Pharmacol. Exp. Ther. 125, 237–240 (1959)). Male NMRI mice weighing 25–30 g were used for this. Groups of 10 animals per substance dose received 0.3 ml/mouse of a 0.02% aqueous solution of phenylquinone (phenylbenzoquinone, Sigma, Deisenhofen; preparation of the solution with the addition of 5% ethanol and storage in a water bath at 45° C.) administered intraperitoneally 10 minutes after intravenous administration of the test substances. The animals were placed individually in observation cages. The number of pain-induced stretching movements (so-called writhing reactions=straightening of the body with stretching of the hind extremities) were counted by means of a push-button counter for 5–20 minutes after the administration of phenylquinone. Animals which received only physiological saline solution were also run as a control.
The substances were tested in the standard dose of 10 mg/kg. The inhibition of the writhing reactions by a substance was calculated according to the following equation: […]
The in-depth investigation of the compounds according to the invention for their analgesic activity was carried out in the phenylquinone-induced writhing in mice as described above.
(In general: In writhing tests, fewer writhes than in controls are read as antinociception.)
In the case of `CN(C)C(c1ccccc1)c1cn(C)c2ccccc12` (stereo not drawn) [Example 22, Dimethyl-[(1-methyl-1H-indol-3-yl)-phenylmethyl]-amine], the “Inhibition of the writhing reaction in %” value is reported as 39%.

Take `Cn1cc(C(c2ccccc2)N2CCOCC2)c2ccccc21` (stereo not drawn) [Example 23, 1-Methyl-3-(morpholin-4-yl-phenylmethyl)-1H-indole]: the “Inhibition of the writhing reaction in %” value turned out to be 75%.

As for `CN(C)C(c1ccccc1)c1c[nH]c2ccccc12` (stereo not drawn) [Example 46, [(1H-Indol-3-yl)-phenylmethyl]-dimethylamine], the “Inhibition of the writhing reaction in %” value stood at 41%.

As for `c1ccc(C(c2c[nH]c3ccccc23)N2CCCC2)cc1` (stereo not drawn) [Example 47, 3-(Phenylpyrrolidin-1-yl-methyl)-1H-indole], the “Inhibition of the writhing reaction in %” value was 57%.

Consider `Cn1cc(C(c2ccccc2)N2CCCCC2)c2ccccc21` (stereo not drawn) [Example 48, 1-Methyl-3-(phenylpiperidin-1-yl-methyl)-1H-indole], for which the “Inhibition of the writhing reaction in %” value is 6%.

Turning to `c1ccc(C(c2c[nH]c3ccccc23)N2CCCCC2)cc1` (stereo not drawn) [Example 49, 3-(Phenylpiperidin-1-yl-methyl)-1H-indole], the “Inhibition of the writhing reaction in %” value is listed as 82%.
